The values below come from ChEMBL document CHEMBL2429795, “New route for synthesis, spectroscopy, and X-ray studies of 2-[aryl-(6-hydroxy-4,4-dimethyl-2-oxocyclohex-6-enyl)methyl]-3-hydroxy-5,5-dimethylcyclohex-2-enone and 1,8-dioxo-octahydroxanthenes and antitumor evaluation” (Med Chem Res, 2013).

Series [1] is described as follows: Cytotoxicity against human NCM460 cells assessed as decrease in cell viability up to 25 uM after 4 to 20 hrs by trypan blue exclusion assay. Format: cell-based.
In series [2] the test system is WI-38. Briefly: Cytotoxicity against human WI38 cells assessed as decrease in cell viability up to 25 uM after 4 to 20 hrs by trypan blue exclusion assay. Format: cell-based.
The test system of series [3] is PrEC. Briefly: Cytotoxicity against human PrEC assessed as decrease in cell viability up to 25 uM after 24 hrs by trypan blue exclusion assay. Format: cell-based.
The nature of series [4]: Cytotoxicity against human NCM460 cells assessed as growth inhibition after 48 hrs by trypan blue exclusion assay. Format: cell-based. To be noted: for IC50: Homo sapiens, NCM460, 48 h; for growth inhibition (GI): human, ncm460, 48 h.
In series [5] the test system is PrEC. Kind of series: Cytotoxicity against human PrEC assessed as growth inhibition after 48 hrs by trypan blue exclusion assay. Format: cell-based. To be noted: for IC50: Homo sapiens, PrEC; for growth inhibition (GI): human, prec.
The test system of series [6] is WI-38. Briefly: Cytotoxicity against human WI38 cells assessed as growth inhibition after 48 hrs by trypan blue exclusion assay. Format: cell-based. To be noted: for IC50: Homo sapiens, WI-38, 48 h; for growth inhibition (GI): human, wi-38, 48 h.
The test system of the next series is SF-268. Kind of series: Cytotoxicity against human SF268 cells assessed as growth inhibition after 48 hrs by sulforhodamine B assay. Format: functional, cell-based. To be noted: for IC50: SF-268, 48 h.
The next series deals with NCI-H460. Kind of series: Cytotoxicity against human NCI-H460 cells assessed as growth inhibition after 48 hrs by sulforhodamine B assay. Format: functional, cell-based. To be noted: for IC50: NCI-H460, 48 h. For orientation: Sulforhodamine B stains cellular protein and so reports cell mass.
Another series deals with MCF7. Briefly: Cytotoxicity against human MCF7 cells assessed as growth inhibition after 48 hrs by sulforhodamine B assay. Format: functional, cell-based. Conditions: for IC50: MCF7, 48 h.

The IC50 is the point on the concentration scale where inhibition reaches its midpoint. Consider `CC1(C)CC(=O)C2=C(C1)OC1=C(C(=O)CC(C)(C)C1)C2c1ccccc1`, for which the Activity result (in series [1]; with WI-38 [2]; in the series on PrEC [3]) was “Non-toxic” in each case. Besides, the IC50 in [4] was found to be 90 nM; with PrEC [5], 450 nM; in the series on WI-38 [6], 470 nM; in the series with SF-268, 36300 nM; in the series with NCI-H460 it was 20100 nM; with MCF7 it was 30400 nM. Besides, the “growth inhibition (GI)” value (in series [4]; in the series on PrEC [5]; in the series with WI-38 [6]; in the series with SF-268; in the series with NCI-H460; in the series on MCF7) was “Dose-dependent effect” in each case.
On to `COc1cccc2c1C(=O)c1c(O)c3c(c(O)c1C2=O)C[C@@](O)(C(=O)CO)C[C@@H]3O[C@H]1C[C@H](N)[C@H](O)[C@H](C)O1` [DOXORUBICIN], for which the IC50 with SF-268 worked out at 90 nM; in the series with NCI-H460, 90 nM; in the series on MCF7, 40 nM.
As to `CC1(C)CC(=O)C(C(C2=C(O)CC(C)(C)CC2=O)c2ccccc2)=C(O)C1`, the Activity entry (in series [1]; in the series on WI-38 [2]; in the series on PrEC [3]) was “Non-toxic” in each case. Besides, the IC50 in series [4] was determined as 2430 nM; in the series with PrEC [5] it was 1290 nM; in the series on WI-38 [6], 2180 nM; with SF-268, 20 nM; with NCI-H460, 10 nM; in the series on MCF7 it was 20 nM. Also, the “growth inhibition (GI)” value (in series [4]; with PrEC [5]; with WI-38 [6]; in the series on SF-268; in the series on NCI-H460; in the series with MCF7) was “Dose-dependent effect” each time.
Regarding `CC1(C)CC(=O)C(C(C2=C(O)CC(C)(C)CC2=O)c2ccco2)=C(O)C1`, the Activity result (in series [1]; with WI-38 [2]; in the series on PrEC [3]) was “Non-toxic” throughout. Further, the IC50 in [4] was found to be 60 nM; with PrEC [5], 330 nM; in the series with WI-38 [6] it was 80 nM; with SF-268, 30 nM; in the series on NCI-H460, 30 nM; in the series on MCF7 it was 30 nM. Further, the “growth inhibition (GI)” value (in series [4]; with PrEC [5]; in the series on WI-38 [6]; with SF-268; in the series on NCI-H460; in the series on MCF7) was “Dose-dependent effect” in each case.
